We go through eleven compounds from ChEMBL document CHEMBL1201862, “PubChem BioAssay data set” (2004).

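Briefly, cells in 96-well plates were exposed to five compound concentrations for 48 h, and endpoints were estimated by linear interpolation. GI50 = concentration required for 50% inhibition of growth.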 The source made the active and inactive calls. Rule as the data show it: active = GI50 up to about 1.1 µM and inactive = higher.

Assay in all cases: NCI anticancer screen, dose series, 48 h
For assay [1], the system named is UO-31.
The test system of assay [2] is A498.
Assay [3] concerns MDA-MB-435.
Assay [4] has as its system IGROV-1.
Assay [5] has as its system SK-MEL-28.
Assay [6] concerns HOP-92.
For assay [7], the system named is 786-0.
The subject of assay [8] is RPMI-8226.
Assay [9] has as its system SNB-75.
In assay [10] the test system is PC-3.
Assay [11] deals with NCI/ADR-RES.
Assay [12] deals with M14.
For assay [13], the system named is HL-60.
In assay [14] the test system is COLO 205.
For assay [15], the system named is UACC-62.
Assay [16] concerns CAKI-1.
The test system of assay [17] is EKVX.
Assay [18] has as its system K562.
In assay [19] the test system is SN12C.

Consider `OCC1OC(O)C(/N=C\c2ccc3c(c2)OCO3)C(O)C1O` (centres undefined), for which the GI50 in assay [1], in assay [2], in assay [3], in assay [4], in assay [5] and in assay [6] was > 100 µM (inactive) in each case. Moreover, the GI50 in assay [7], in [8], in assay [9], in [10], in [11] and in assay [12] was > 100 µM (inactive) throughout. The GI50 in [13] is > 100 µM (inactive); in assay [14], > 100 µM (inactive); in assay [15] it was > 100 µM (inactive); in assay [16], > 100 µM (inactive); in assay [17], > 65.3 µM (inactive).
As for `Cc1cc(S(=O)(=O)Nc2nc(N)n(-c3cnc4ccccc4n3)n2)c(S)cc1Cl`, the GI50 in assay [1] was > 100 µM (inactive); in assay [2] it was 62.2 µM (inactive); in [3], > 100 µM (inactive); in assay [4], > 100 µM (inactive); in [5] it was > 100 µM (inactive); in assay [6], 16.6 µM (inactive). In addition, the GI50 was > 100 µM (inactive) in assay [7]; 22.7 µM (inactive) in [9]; > 100 µM (inactive) in [10]; > 100 µM (inactive) in assay [11]; > 100 µM (inactive) in assay [18]; > 100 µM (inactive) in [12]. The GI50 in assay [13] was > 100 µM (inactive); in assay [14], > 100 µM (inactive); in assay [19] it was > 100 µM (inactive); in assay [15] it was 49.7 µM (inactive); in [16], 95.3 µM (inactive); in assay [17] it was > 100 µM (inactive).
Consider `COc1cc2c3c([nH]c2c(OC)c1OC)CCN(Cc1ccccc1)C3`, for which the GI50 in assay [2] is 22.3 µM (inactive); in assay [3] it was 15.6 µM (inactive); in assay [4], 57.7 µM (inactive); in assay [5] it was 21.6 µM (inactive); in assay [6], 6.27 µM (inactive); in assay [7], 22.3 µM (inactive). Besides, the GI50 is 18.5 µM (inactive) in assay [8]; 42.1 µM (inactive) in assay [9]; 55.1 µM (inactive) in [10]; 29.9 µM (inactive) in assay [11]; 20.2 µM (inactive) in assay [18]; 14.1 µM (inactive) in assay [12]. In addition, the GI50 in [13] was 21.4 µM (inactive); in assay [14], 17 µM (inactive); in assay [19] it was 45.6 µM (inactive); in assay [15] it was 32.3 µM (inactive); in assay [16] it was 0.787 µM (active); in assay [17], > 100 µM (inactive).
For `N/C(=N\OC(=O)NC(Cl)=C(Cl)Cl)c1cc(C(F)(F)F)cc(C(F)(F)F)c1`, the GI50 in assay [1] was 18 µM (inactive); in assay [2], 17.5 µM (inactive); in assay [3], 19.4 µM (inactive); in assay [4], 25.8 µM (inactive); in assay [5] it was 17.4 µM (inactive); in assay [6], 14.8 µM (inactive). The GI50 was 16.2 µM (inactive) in [7]; 12.5 µM (inactive) in [8]; 17.5 µM (inactive) in assay [10]; 19.5 µM (inactive) in [11]; 25.2 µM (inactive) in assay [12]; 12.8 µM (inactive) in assay [13]. Besides, the GI50 in assay [14] is 15.7 µM (inactive); in assay [19] it was 24.3 µM (inactive); in assay [16], 16.7 µM (inactive); in assay [17], 13.7 µM (inactive).
As for `O=c1[nH]nc(Cc2c[nH]c3ccccc23)o1`, the GI50 in assay [1], in assay [2], in [3], in [4], in [5] and in assay [6] was > 100 µM (inactive) throughout. Further, the GI50 in assay [7], in assay [8], in [10], in assay [11], in assay [18] and in [12] was > 100 µM (inactive) in each case. The GI50 in assay [13], in assay [14], in [19], in assay [15], in assay [16] and in [17] was > 100 µM (inactive) throughout.
For the compound `O=C1NC(=S)NC(=O)C1C(c1ccc(Cl)cc1)C1C(=O)NC(=S)NC1=O.c1ccncc1`, the GI50 in assay [1], in [2], in assay [3], in assay [4], in assay [5] and in assay [6] was > 100 µM (inactive) each time. For the same compound, the GI50 in assay [7], in assay [8], in assay [10], in [11], in [18] and in [12] was > 100 µM (inactive) each time. The GI50 in assay [13] is > 100 µM (inactive); in assay [14] it was > 100 µM (inactive); in [19], > 100 µM (inactive); in [15] it was > 100 µM (inactive); in assay [16], > 100 µM (inactive); in assay [17], 86.1 µM (inactive).
For the compound `COc1ccc2c(c1)C1Oc3ccccc3CC1CO2` (centres undefined), the GI50 in assay [1] was 22.3 µM (inactive); in assay [2], 34.4 µM (inactive); in assay [3], 47 µM (inactive); in [4], > 100 µM (inactive); in assay [6], 25.2 µM (inactive); in assay [7] it was 47.4 µM (inactive). In addition, the GI50 was 25.6 µM (inactive) in [8]; 28.4 µM (inactive) in assay [9]; 46.1 µM (inactive) in assay [10]; 42.1 µM (inactive) in assay [11]; 52.2 µM (inactive) in [18]; 75.3 µM (inactive) in assay [12]. Moreover, the GI50 in [13] was 21.2 µM (inactive); in assay [14], 53.1 µM (inactive); in assay [19], 35.4 µM (inactive); in assay [15] it was 98.2 µM (inactive); in assay [16], 56.8 µM (inactive); in [17] it was 47.2 µM (inactive).
For `Cn1ccnc1Oc1ccc(Cl)cc1`, the GI50 is 11.7 µM (inactive) in [1]; 16.9 µM (inactive) in assay [2]; 12.4 µM (inactive) in assay [3]; 14.4 µM (inactive) in assay [5]; 11 µM (inactive) in assay [6]; 11.5 µM (inactive) in [7]. Further, the GI50 in assay [8] is 0.49 µM (active); in assay [9], 14.7 µM (inactive); in [10], 14.3 µM (inactive); in assay [11], 16.7 µM (inactive); in assay [18], 13.7 µM (inactive); in [12], 13.7 µM (inactive). Also, the GI50 in assay [13] is 0.631 µM (active); in assay [14] it was 13 µM (inactive); in assay [19], 13.6 µM (inactive); in assay [15], 11.1 µM (inactive); in assay [17], 19.8 µM (inactive).
In the case of `C=C1c2nc3ccccc3n2C=C(c2ccccc2)N1c1ccc(OC)cc1`, the GI50 in assay [1] was 4.52 µM (inactive); in assay [2], > 100 µM (inactive); in assay [3], 33.5 µM (inactive); in assay [4], 11 µM (inactive); in assay [6], 31.1 µM (inactive); in [7], 19.5 µM (inactive). Further, the GI50 in assay [8] was 12.4 µM (inactive); in assay [9], 3.68 µM (inactive); in assay [10] it was 19.1 µM (inactive); in [11] it was 17.7 µM (inactive); in assay [18] it was 45.4 µM (inactive); in assay [12] it was 13.2 µM (inactive). Also, the GI50 is 29.8 µM (inactive) in assay [13]; 25.4 µM (inactive) in assay [14]; 65.3 µM (inactive) in [19]; 17.7 µM (inactive) in assay [15]; 25.5 µM (inactive) in [16]; 23.9 µM (inactive) in [17].
Turning to `COc1cc2c(cc1OC)C(=O)/C(=C/c1ccc(Cl)cc1)CC2`, the GI50 in [1], in [2], in assay [3], in assay [4], in assay [5] and in [6] was > 10 µM (inactive) in each case. Further, the GI50 in [7], in assay [8], in [10], in assay [11], in assay [18] and in assay [12] was > 10 µM (inactive) throughout. Moreover, the GI50 in assay [13], in assay [14], in assay [19], in [15], in [16] and in [17] was > 10 µM (inactive) each time.
Turning to `COc1cc2cc3c4cc(OC)c(OC)cc4cc[n+]3c(C)c2cc1OC` [CORALYNE], the GI50 in assay [1] was > 100 µM (inactive); in [2], 6.05 µM (inactive); in assay [3] it was > 100 µM (inactive); in [4] it was 37.3 µM (inactive); in assay [5], > 100 µM (inactive); in assay [6], > 100 µM (inactive). Further, the GI50 in assay [7] was 15.6 µM (inactive); in [8], > 100 µM (inactive); in assay [9] it was 10.2 µM (inactive); in [10], > 100 µM (inactive); in [11], > 100 µM (inactive); in assay [18] it was 91.4 µM (inactive). The GI50 in assay [13] is > 100 µM (inactive); in [14], 47.3 µM (inactive); in assay [19], 5.74 µM (inactive); in assay [15] it was 23.4 µM (inactive); in assay [16], 67.1 µM (inactive); in assay [17], 60.7 µM (inactive).
